Eleven compounds from US10106504B2, “Pyridin-3-yl acetic acid derivatives as inhibitors of human immunodeficiency virus replication” (priority 2015, dated 2018) can be followed below.

For the first test, the system named is NL-RLuc virus. In words: Inhibition of HIV replication (NL-RLuc virus, luciferase readout in MT-2 cells). To be noted: Human immunodeficiency virus 1, MT2, 120 h, read-out: Activity. Format: cell-based. The method, boiled down:
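MT-2 cells were infected with NL-RLuc (Renilla luciferase in place of nef) in the presence of serial compound dilutions, in RPMI 1640 with 10% heat-inactivated FBS. After 5 days, luciferase was measured. EC50 came from the median effect equation using at least 2 experiments.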
As for `Cc1cc(N2CCc3cc(-c4c(C)nc(C)c([C@H](OC(C)(C)C)C(=O)O)c4-c4ccc5c(c4)CCCO5)ccc3C2)nc(C)n1` [Example 58, (S)-2-(tert-Butoxy)-2-(4-(chroman-6-yl)-5-(2-(2,6-dimethylpyrimidin-4-yl)-1,2,3,4-tetrahydroisoquinolin-6-yl)-2,6-dimethylpyridin-3-yl)acetic Acid], the EC50 was less than 0.1 µM.

On to `Cc1nc(N)c(-c2ccc(OCCc3ccc(F)cc3)cc2)c(-c2ccc3c(c2)CCCO3)c1[C@H](OC(C)(C)C)C(=O)O` [Example 59, (S)-2-(6-Amino-4-(chroman-6-yl)-5-(4-(4-fluorophenethoxy)phenyl)-2-methylpyridin-3-yl)-2-(tert-butoxy)acetic Acid], for which the EC50 is less than 0.1 µM.

For the compound `Cc1cc(F)ccc1CN1CCc2cc(-c3c(N)nc(C)c([C@H](OC(C)(C)C)C(=O)O)c3-c3ccc4c(c3)CCCO4)ccc2C1` [Example 60, (S)-2-(6-Amino-4-(chroman-6-yl)-5-(2-(4-fluoro-2-methylbenzyl)-1,2,3,4-tetrahydroisoquinolin-6-yl)-2-methylpyridin-3-yl)-2-(tert-butoxy)acetic Acid], the EC50 was less than 0.1 µM.

Regarding `Cc1nc(N)c(-c2ccc3c(c2)CCN(Cc2cccc(F)c2C)C3)c(-c2ccc3c(c2)CCCO3)c1[C@H](OC(C)(C)C)C(=O)O` [Example 61, (S)-2-(6-Amino-4-(chroman-6-yl)-5-(2-(3-fluoro-2-methylbenzyl)-1,2,3,4-tetrahydroisoquinolin-6-yl)-2-methylpyridin-3-yl)-2-(tert-butoxy)acetic acid], the EC50 is less than 0.1 µM.

In the case of `Cc1cccc(F)c1CN1CCc2cc(-c3c(N)nc(C)c([C@H](OC(C)(C)C)C(=O)O)c3-c3ccc4c(c3)CCCO4)ccc2C1` [Example 62, (S)-2-(6-Amino-4-(chroman-6-yl)-5-(2-(2-fluoro-6-methylbenzyl)-1,2,3,4-tetrahydroisoquinolin-6-yl)-2-methylpyridin-3-yl)-2-(tert-butoxy)acetic Acid], the EC50 is less than 0.1 µM.

Consider `Cc1cccc(Cl)c1CN1CCc2cc(-c3c(N)nc(C)c([C@H](OC(C)(C)C)C(=O)O)c3-c3ccc4c(c3)CCCO4)ccc2C1` [Example 63, (S)-2-(6-Amino-5-(2-(2-chloro-6-methylbenzyl)-1,2,3,4-tetrahydroisoquinolin-6-yl)-4-(chroman-6-yl)-2-methylpyridin-3-yl)-2-(tert-butoxy)acetic Acid], for which the EC50 is less than 0.1 µM.

Consider `COc1nccc(N2CCc3cc(-c4c(N)nc(C)c([C@H](OC(C)(C)C)C(=O)O)c4-c4ccc5c(c4)CCCO5)ccc3C2)n1` [Example 64, (S)-2-(6-Amino-4-(chroman-6-yl)-5-(2-(2-methoxypyrimidin-4-yl)-1,2,3,4-tetrahydroisoquinolin-6-yl)-2-methylpyridin-3-yl)-2-(tert-butoxy)acetic Acid], for which the EC50 was less than 0.1 µM.

`Cc1cc(N2CCc3cc(-c4c(N)nc(C)c([C@H](OC(C)(C)C)C(=O)O)c4-c4ccc5c(c4)CCCO5)ccc3C2)nc(C)n1` [Example 65, (S)-2-(6-Amino-4-(chroman-6-yl)-5-(2-(2,6-dimethylpyrimidin-4-yl)-1,2,3,4-tetrahydroisoquinolin-6-yl)-2-methylpyridin-3-yl)-2-(tert-butoxy)acetic Acid]: the EC50 was less than 0.1 µM.

As to `Cc1nc(CCCC2CCOCC2)c(-c2ccc(OCCc3ccc(F)cc3)cc2)c(-c2ccc3c(c2)CCCO3)c1[C@H](OC(C)(C)C)C(=O)O` [Example 66, (S)-2-(tert-Butoxy)-2-(4-(chroman-6-yl)-5-(4-(4-fluorophenethoxy)phenyl)-2-methyl-6-(3-(tetrahydro-2H-pyran-4-yl)propyl)pyridin-3-yl)acetic Acid], the EC50 is less than 0.1 µM.

On to `Cc1cc(N2CCc3cc(-c4c(CCCC5CCOCC5)nc(C)c([C@H](OC(C)(C)C)C(=O)O)c4-c4ccc5c(c4)CCCO5)ccc3C2)ncn1` [Example 67, (S)-2-(tert-Butoxy)-2-(4-(chroman-6-yl)-2-methyl-5-(2-(6-methylpyrimidin-4-yl)-1,2,3,4-tetrahydroisoquinolin-6-yl)-6-(3-(tetrahydro-2H-pyran-4-yl)propyl)pyridin-3-yl)acetic Acid], for which the EC50 is less than 0.1 µM.

In the case of `Cc1cccc(F)c1CN1CCc2cc(-c3c(CCCC4CCOCC4)nc(C)c([C@H](OC(C)(C)C)C(=O)O)c3-c3ccc4c(c3)CCCO4)ccc2C1` [Example 68, (S)-2-(tert-Butoxy)-2-(4-(chroman-6-yl)-5-(2-(2-fluoro-6-methylbenzyl)-1,2,3,4-tetrahydroisoquinolin-6-yl)-2-methyl-6-(3-(tetrahydro-2H-pyran-4-yl)propyl)pyridin-3-yl)acetic Acid], the EC50 was less than 0.1 µM.

Still in this test, the particulars now being: Human immunodeficiency virus 1, MT2, 120 h, read-out: EC50 μM.
Consider `Cc1cc(F)ccc1CN1CCc2cc(-c3c(N)nc(C)c([C@H](OC(C)(C)C)C(=O)O)c3-c3ccc4c(c3)CCCO4)ccc2C1` [Example 60, (S)-2-(6-Amino-4-(chroman-6-yl)-5-(2-(4-fluoro-2-methylbenzyl)-1,2,3,4-tetrahydroisoquinolin-6-yl)-2-methylpyridin-3-yl)-2-(tert-butoxy)acetic Acid], for which the EC50 came to 0.003 µM.

For `Cc1nc(CCCC2CCOCC2)c(-c2ccc(OCCc3ccc(F)cc3)cc2)c(-c2ccc3c(c2)CCCO3)c1[C@H](OC(C)(C)C)C(=O)O` [Example 66, (S)-2-(tert-Butoxy)-2-(4-(chroman-6-yl)-5-(4-(4-fluorophenethoxy)phenyl)-2-methyl-6-(3-(tetrahydro-2H-pyran-4-yl)propyl)pyridin-3-yl)acetic Acid], the EC50 amounted to 0.006 µM.
